From patent US11779600B2, “Methods of treating or preventing alzheimer's disease and associated conditions” (CEDARS-SINAI MEDICAL CENTER, priority 2016, dated 2023)

System: OPN
Assay: Quantitative IHC of cerebral OPN expression in ADtg mice
Format: in vivo, mouse
Description: ADtg mice (10 months old) received subcutaneous injections of GA [also known as Cop-1 and Copaxone®; 100 μg in phosphate-buffered saline (PBS)] or PBS alone (control group) twice a week for 1 week and then once a week for 8 weeks. For evaluation of innate immune infiltration to the brain by flow cytometry, 10-month-old ADtg mice received subcutaneous injections of GA ([…] in PBS) or PBS alone twice a week for 1 week and then once a week for 3 weeks. At the end of the study, all mice were anaesthetized and then perfused with ice-cold PBS with 0.5 mM EDTA, after which their organs were collected and analyzed or fixed in 2.5% paraformaldehyde (Sigma-Aldrich), and cryoprotected with 30% sucrose for further histological analysis. CD115^+ monocytes from mice donors were isolated as previously reported (Koronyo et al., Brain: a journal of neurology 2015,138:2399-2422). […] For microscopic analysis, we used a Carl Zeiss Axio Imager Z1 fluorescence microscope equipped with ApoTome (Carl Zeiss MicroImaging, Inc.). […] The number and area (μm^2) of OPN+ cells, Iba1^+CD45^hi cells, GFAP^+ cells, Thio-S^+ amyloid-βplaques and 4G8^+ amyloid-βplaques were determined by examining four to six coronal sections per mouse at 150-μm intervals over an area covering both the hippocampal and cortical (including entorhinal and cingulate cortex) regions. […]

glatiramer acetate [GA]
cerebral OPN expression in comparison to PBS controls (quantitative IHC, symptomatic ADtg mice, 2 months treatment (FIG. 11B)): 1.5 times
increase in total OPN expression per Aβ-plaque area (ratio of total OPN area to plaque area, total brain regions (FIG. 11D)): 2.6 fold
